# Reference: US20120022058A1, “4,5-DIHYDRO-1H-PYRAZOLE COMPOUNDS AND THEIR PHARMACEUTICAL USES” (Pfizer Inc., priority 2009, published 2012)
# Target: T1, MR (Homo sapiens, UniProt P08235)
# T1 construct: expressed in transfected cells; host or cells: Huh7 human liver cells, transient transfection
# T1 sequence (P08235 726-964 limits assumed): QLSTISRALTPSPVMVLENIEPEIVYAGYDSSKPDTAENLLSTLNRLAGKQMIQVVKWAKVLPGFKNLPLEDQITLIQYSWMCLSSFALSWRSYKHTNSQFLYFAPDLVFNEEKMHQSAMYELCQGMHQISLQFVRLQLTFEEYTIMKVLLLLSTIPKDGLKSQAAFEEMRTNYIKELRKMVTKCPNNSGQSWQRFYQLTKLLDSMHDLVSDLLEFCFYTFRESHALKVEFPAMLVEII
# Test: Cell-Based Reporter Assay (Gal4 DBD-MR LBD luciferase reporter, antagonist mode);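 also: cells co-transfected with a Gal4 response element luciferase plasmid, compound exposure overnight before lysis and luminescence counting, IC50 reflects reduced aldosterone-stimulated reporter signal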
# Settings: antagonist mode vs aldosterone at EC80; transfected human liver cells (Huh7); luciferase readout; Examples 3, 6, 12 and 13 tested in analogous format with minor variations
row,Structure (SMILES),IC50
1,"Cc1cc(C2=NN(c3ccc(C#N)c(C)n3)[C@@H](C3CCCC3)C2)cc(C)c1O [Example 57, (R)-6-(5-cyclopentyl-3-(4-hydroxy-3,5-dimethylphenyl)-4,5-dihydro-1H-pyrazol-1-yl)-2-methylnicotinonitrile]",503 nM
2,"Cc1nc(N2N=C(c3cc(F)c(O)c(F)c3)C[C@@H]2C2CCCC2)ccc1C#N [Example 61, (R)-6-(5-cyclopentyl-3-(3,5-difluoro-4-hydroxyphenyl)-4,5-dihydropyrazol-1-yl)-2-methylnicotinonitrile]",208 nM
3,"Cc1nc(N2N=C(c3ccc(O)c(F)c3)C[C@@H]2C2CCCC2)ccc1C#N [Example 62, (R)-6-(5-cyclopentyl-3-(3-fluoro-4-hydroxyphenyl)-4,5-dihydropyrazol-1-yl)-2-methylnicotinonitrile]",92.3 nM
4,"Cc1nc(N2N=C(c3ccc4c(c3)C(C)(C)OC(=O)N4)C[C@@H]2C2CCCC2)ccc1C#N [Example 64, (R)-6-(5-cyclopentyl-3-(4,4-dimethyl-2-oxo-2,4-dihydro-1H-benzo[d][1,3]oxazin-6-yl)-4,5-dihydro-1H-pyrazol-1-yl)-2-methylnicotinonitrile]",10 nM
5,"CC(=O)Nc1cccc(C2=NN(c3ccc(C#N)c(C)n3)[C@@H](C3CCCC3)C2)n1 [Example 66, (R)—N-(6-(1-(5-cyano-6-methylpyridin-2-yl)-5-cyclopentyl-4,5-dihydro-1H-pyrazol-3-yl)pyridin-2-yl)acetamide]",255 nM
6,"Cc1nc(N2N=C(c3cccc(OC(C)C)n3)C[C@@H]2C2CCCC2)ccc1C#N [Example 67, (R)-6-(5-cyclopentyl-3-(6-isopropoxypyridin-2-yl)-4,5-dihydro-1H-pyrazol-1-yl)-2-methylnicotinonitrile]",170 nM
7,"COc1nc(C2=NN(c3ccc(C#N)c(C)c3)C(C3CC(F)(F)C3)C2)ccc1C(=O)O (stereo not shown) [Example 70, 6-(1-(4-cyano-3-methylphenyl)-5-(3,3-difluorocyclobutyl)-4,5-dihydro-1H-pyrazol-3-yl)-2-methoxynicotinic acid]",147 nM
